Experiments:
[1] = tested on: Puccinia recondita f. Sp. Tritici; assay: Fungicidal activity, wheat leaf disc curative (brown rust); format: in vivo; conditions: foliar, 200 ppm in the applied formulation, wheat leaf segments cv. Kanzler, curative (applied 1 day after inoculation), compared to untreated control, 6 to 8 days after application, read-out: disease control
How it was run: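 Spray application came one day after spore inoculation of Kanzler wheat leaf segments kept on agar. Conditions: 19° C, 75% relative humidity, dark before treatment and 12 h light/12 h dark after. Efficacy = % disease control compared with untreated, 6–8 days post-application.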

[2] = tested on: Puccinia recondita f. Sp. Tritici; assay: Fungicidal activity, wheat leaf disc preventative (brown rust); format: in vivo; conditions: foliar, 200 ppm in the applied formulation, wheat leaf segments cv. Kanzler, compared to untreated control, 7 to 9 days after application, read-out: disease control
How it was run: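 Wheat cv. Kanzler leaf segments on agar were sprayed with formulated compound in water, then inoculated with spores 1 day later. Incubated at 19° C, 75% rh, 12 h light/12 h dark; percent disease control versus untreated scored 7 to 9 days after application.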

Phakopsora pachyrhizi = assay: Fungicidal activity, soybean leaf disc preventative (Asian soybean rust); format: in vivo; conditions: foliar, 200 ppm in the applied formulation, soybean leaf disks, compared to untreated control, 12 to 14 days after application, read-out: disease control
How it was run: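 Read-out is percent disease control relative to untreated check discs, assessed once untreated discs show adequate disease, 12 to 14 days after application. Compounds, tested at 200 ppm in the applied formulation, are sprayed onto soybean leaf discs one day before inoculation with a spore suspension.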

[3] = tested on: Glomerella lacenarium (Colletotrichum lacenarium); assay: Fungicidal activity, liquid culture, cucumber preventative (anthracnose); format: cell-based; conditions: 20 ppm in the applied formulation, liquid culture in PDB, inhibition of growth measured photometrically 3 to 4 days after application, compared to untreated control, read-out: disease control
How it was run: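 In liquid culture, cryo-stored conidia in potato dextrose broth were exposed to compound delivered from DMSO solution. Growth inhibition was measured photometrically after 3 to 4 days at 24° C.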

CCN(Cc1ccc(-c2noc(C(F)(F)F)n2)s1)C(=O)NC [Compound 4.5, 1-ethyl-3-methyl-1-[[5-[5-(trifluoromethyl)-1,2,4-oxadiazol-3-yl]-2-thienyl]methyl]urea]
≥ 80%: pest or weed control at 200 ppm [1] | pest or weed control at 200 ppm [2] | pest or weed control at 200 ppm (Phakopsora pachyrhizi) | inhibition of growth at 20 ppm [3]

CCN(Cc1ccc(-c2noc(C(F)(F)F)n2)s1)C(=O)C(C)C [Compound 4.7, N-ethyl-2-methyl-N-[[5-[5-(trifluoromethyl)-1,2,4-oxadiazol-3-yl]-2-thienyl]methyl]propanamide]
≥ 80%: pest or weed control at 200 ppm [1] | pest or weed control at 200 ppm [2] | pest or weed control at 200 ppm (Phakopsora pachyrhizi) | inhibition of growth at 20 ppm [3]

CCNC(=O)N(CC)Cc1ccc(-c2noc(C(F)(F)F)n2)s1 [Compound 4.8, 1,3-diethyl-1-[[5-[5-(trifluoromethyl)-1,2,4-oxadiazol-3-yl]-2-thienyl]methyl]urea]
≥ 80%: pest or weed control at 200 ppm [1] | pest or weed control at 200 ppm [2] | pest or weed control at 200 ppm (Phakopsora pachyrhizi) | inhibition of growth at 20 ppm [3]

CCN(Cc1ccc(-c2noc(C(F)(F)F)n2)s1)C(=O)NC(C)C [Compound 4.9, 1-ethyl-3-isopropyl-1-[[5-[5-(trifluoromethyl)-1,2,4-oxadiazol-3-yl]-2-thienyl]methyl]urea]
≥ 80%: pest or weed control at 200 ppm [1] | pest or weed control at 200 ppm [2] | pest or weed control at 200 ppm (Phakopsora pachyrhizi) | inhibition of growth at 20 ppm [3]

CC(C)C(=O)N(C)Cc1ccc(-c2noc(C(F)(F)F)n2)s1 [Compound 4.10, N,2-dimethyl-N-[[5-[5-(trifluoromethyl)-1,2,4-oxadiazol-3-yl]-2-thienyl]methyl]propanamide]
≥ 80%: pest or weed control at 200 ppm [1] | pest or weed control at 200 ppm [2] | pest or weed control at 200 ppm (Phakopsora pachyrhizi) | inhibition of growth at 20 ppm [3]

CNC(=O)N(Cc1ccc(-c2noc(C(F)(F)F)n2)s1)C(C)C [Compound 4.13, 1-isopropyl-3-methyl-1-[[5-[5-(trifluoromethyl)-1,2,4-oxadiazol-3-yl]-2-thienyl]methyl]urea]
≥ 80%: pest or weed control at 200 ppm [1] | pest or weed control at 200 ppm [2] | pest or weed control at 200 ppm (Phakopsora pachyrhizi) | inhibition of growth at 20 ppm [3]

COC(C)C(=O)N(C)Cc1ccc(-c2noc(C(F)(F)F)n2)s1 (stereo not drawn) [Compound 4.15, 2-methoxy-N-methyl-N-[[5-[5-(trifluoromethyl)-1,2,4-oxadiazol-3-yl]-2-thienyl]methyl]propanamide]
≥ 80%: pest or weed control at 200 ppm [1] | pest or weed control at 200 ppm [2] | pest or weed control at 200 ppm (Phakopsora pachyrhizi) | inhibition of growth at 20 ppm [3]

CCNC(=O)N(C)Cc1ccc(-c2noc(C(F)(F)F)n2)s1 [Compound 4.16, 3-ethyl-1-methyl-1-[[5-[5-(trifluoromethyl)-1,2,4-oxadiazol-3-yl]-2-thienyl]methyl]urea]
≥ 80%: pest or weed control at 200 ppm [1] | pest or weed control at 200 ppm [2] | pest or weed control at 200 ppm (Phakopsora pachyrhizi) | inhibition of growth at 20 ppm [3]

CC(C)NC(=O)N(C)Cc1ccc(-c2noc(C(F)(F)F)n2)s1 [Compound 4.17, 3-isopropyl-1-methyl-1-[[5-[5-(trifluoromethyl)-1,2,4-oxadiazol-3-yl]-2-thienyl]methyl]urea]
≥ 80%: pest or weed control at 200 ppm [1] | pest or weed control at 200 ppm [2] | pest or weed control at 200 ppm (Phakopsora pachyrhizi) | inhibition of growth at 20 ppm [3]

CNC(=O)N(Cc1ccc(-c2noc(C(F)(F)F)n2)s1)OCC(F)F [Compound 4.19, 1-(2,2-difluoroethoxy)-3-methyl-1-[[5-[5-(trifluoromethyl)-1,2,4-oxadiazol-3-yl]-2-thienyl]methyl]urea]
≥ 80%: pest or weed control at 200 ppm [1] | pest or weed control at 200 ppm [2] | pest or weed control at 200 ppm (Phakopsora pachyrhizi) | inhibition of growth at 20 ppm [3]

CCN(Cc1ccc(-c2noc(C(F)(F)F)n2)s1)C(=O)CCOC [Compound 4.25, N-ethyl-3-methoxy-N-[[5-[5-(trifluoromethyl)-1,2,4-oxadiazol-3-yl]-2-thienyl]methyl]propanamide]
≥ 80%: pest or weed control at 200 ppm [1] | pest or weed control at 200 ppm [2] | pest or weed control at 200 ppm (Phakopsora pachyrhizi) | inhibition of growth at 20 ppm [3]

CCC(=O)N(CC)Cc1ccc(-c2noc(C(F)(F)F)n2)s1 [Compound 4.26, N-ethyl-N-[[5-[5-(trifluoromethyl)-1,2,4-oxadiazol-3-yl]-2-thienyl]methyl]propanamide]
≥ 80%: pest or weed control at 200 ppm [1] | pest or weed control at 200 ppm [2] | pest or weed control at 200 ppm (Phakopsora pachyrhizi) | inhibition of growth at 20 ppm [3]

CCN(Cc1ccc(-c2noc(C(F)(F)F)n2)s1)C(=O)CCCOC [Compound 4.28, N-ethyl-4-methoxy-N-[[5-[5-(trifluoromethyl)-1,2,4-oxadiazol-3-yl]-2-thienyl]methyl]butanamide]
≥ 80%: pest or weed control at 200 ppm [1] | pest or weed control at 200 ppm [2] | pest or weed control at 200 ppm (Phakopsora pachyrhizi) | inhibition of growth at 20 ppm [3]

CC(=O)NCC(=O)N(C)Cc1ccc(-c2noc(C(F)(F)F)n2)s1 [Compound 4.33, 2-acetamido-N-methyl-N-[[5-[5-(trifluoromethyl)-1,2,4-oxadiazol-3-yl]-2-thienyl]methyl]acetamide]
≥ 80%: pest or weed control at 200 ppm [1] | pest or weed control at 200 ppm [2] | pest or weed control at 200 ppm (Phakopsora pachyrhizi) | inhibition of growth at 20 ppm [3]

COCCC(=O)N(C)Cc1ccc(-c2noc(C(F)(F)F)n2)s1 [Compound 4.35, 3-methoxy-N-methyl-N-[[5-[5-(trifluoromethyl)-1,2,4-oxadiazol-3-yl]-2-thienyl]methyl]propanamide]
≥ 80%: pest or weed control at 200 ppm [1] | pest or weed control at 200 ppm [2] | pest or weed control at 200 ppm (Phakopsora pachyrhizi) | inhibition of growth at 20 ppm [3]

CCC(C)C(=O)N(C)Cc1ccc(-c2noc(C(F)(F)F)n2)s1 (stereo not drawn) [Compound 4.37, N,2-dimethyl-N-[[5-[5-(trifluoromethyl)-1,2,4-oxadiazol-3-yl]-2-thienyl]methyl]butanamide]
≥ 80%: pest or weed control at 200 ppm [1] | pest or weed control at 200 ppm [2] | pest or weed control at 200 ppm (Phakopsora pachyrhizi) | inhibition of growth at 20 ppm [3]

COCCCC(=O)N(C)Cc1ccc(-c2noc(C(F)(F)F)n2)s1 [Compound 4.38, 4-methoxy-N-methyl-N-[[5-[5-(trifluoromethyl)-1,2,4-oxadiazol-3-yl]-2-thienyl]methyl]butanamide]
≥ 80%: pest or weed control at 200 ppm [1] | pest or weed control at 200 ppm [2] | pest or weed control at 200 ppm (Phakopsora pachyrhizi) | inhibition of growth at 20 ppm [3]

CN(Cc1ccc(-c2noc(C(F)(F)F)n2)s1)C(=O)CC(F)(F)F [Compound 4.40, 3,3,3-trifluoro-N-methyl-N-[[5-[5-(trifluoromethyl)-1,2,4-oxadiazol-3-yl]-2-thienyl]methyl]propanamide]
≥ 80%: pest or weed control at 200 ppm [1] | pest or weed control at 200 ppm [2] | pest or weed control at 200 ppm (Phakopsora pachyrhizi) | inhibition of growth at 20 ppm [3]

COCCC(=O)N(Cc1ccc(-c2noc(C(F)(F)F)n2)s1)C(C)C [Compound 4.45, N-isopropyl-3-methoxy-N-[[5-[5-(trifluoromethyl)-1,2,4-oxadiazol-3-yl]-2-thienyl]methyl]propanamide]
≥ 80%: pest or weed control at 200 ppm [1] | pest or weed control at 200 ppm [2] | pest or weed control at 200 ppm (Phakopsora pachyrhizi) | inhibition of growth at 20 ppm [3]

COCC(=O)N(Cc1ccc(-c2noc(C(F)(F)F)n2)s1)C1CC1 [Compound 4.52, N-cyclopropyl-2-methoxy-N-[[5-[5-(trifluoromethyl)-1,2,4-oxadiazol-3-yl]-2-thienyl]methyl]acetamide]
≥ 80%: pest or weed control at 200 ppm [1] | pest or weed control at 200 ppm [2] | pest or weed control at 200 ppm (Phakopsora pachyrhizi) | inhibition of growth at 20 ppm [3]

CCCC(=O)N(Cc1ccc(-c2noc(C(F)(F)F)n2)s1)C1CC1 [Compound 4.54, N-cyclopropyl-N-[[5-[5-(trifluoromethyl)-1,2,4-oxadiazol-3-yl]-2-thienyl]methyl]butanamide]
≥ 80%: pest or weed control at 200 ppm [1] | pest or weed control at 200 ppm [2] | pest or weed control at 200 ppm (Phakopsora pachyrhizi) | inhibition of growth at 20 ppm [3]

— patent publication US20200187502A1, “MICROBIOCIDAL OXADIAZOLE DERIVATIVES” (SYNGENTA PARTICIPATIONS AG, priority 2017, published 2020)
